Active and inactive are the calls of the source.
Experiments:
[1] = molecular target: T1, Low molecular weight phosphotyrosine protein phosphatase (Homo sapiens, UniProt P24666); type: functional; settings: read-out: IC50_Mean;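 further: Dose-response confirmation assay measuring inhibition of LMPTP enzyme activity by fluorescence intensity read-out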
T1 sequence (P24666 whole entry): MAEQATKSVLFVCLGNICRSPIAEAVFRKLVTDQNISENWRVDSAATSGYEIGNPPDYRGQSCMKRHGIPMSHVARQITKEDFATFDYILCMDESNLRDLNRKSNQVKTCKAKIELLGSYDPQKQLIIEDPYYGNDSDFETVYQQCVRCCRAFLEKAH

[2] = molecular target: T2, Microphthalmia-associated transcription factor (Homo sapiens, UniProt O75030); test: TRPM1 promoter luciferase signal decrease, dose response, MITF inhibitor project, cell-based, SK-MEL-5, cherry-picked, set 3 (AID 493073); type: functional
T2 sequence (O75030 whole entry): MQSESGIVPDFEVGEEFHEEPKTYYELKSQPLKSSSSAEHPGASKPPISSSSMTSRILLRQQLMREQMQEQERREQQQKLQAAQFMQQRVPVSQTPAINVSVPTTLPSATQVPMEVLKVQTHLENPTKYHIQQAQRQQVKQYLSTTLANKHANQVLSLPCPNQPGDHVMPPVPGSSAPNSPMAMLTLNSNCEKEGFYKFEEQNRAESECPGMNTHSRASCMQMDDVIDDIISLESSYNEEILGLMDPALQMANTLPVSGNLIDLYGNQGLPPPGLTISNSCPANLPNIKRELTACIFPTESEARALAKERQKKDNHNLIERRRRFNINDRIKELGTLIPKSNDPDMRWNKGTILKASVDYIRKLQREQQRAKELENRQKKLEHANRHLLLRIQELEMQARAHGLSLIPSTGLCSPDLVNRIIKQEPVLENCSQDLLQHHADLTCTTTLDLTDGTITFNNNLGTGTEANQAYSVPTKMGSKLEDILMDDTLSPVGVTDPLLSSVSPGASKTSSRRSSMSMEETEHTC

[3] = molecular target: Cytochrome P450 2C9 (Homo sapiens, UniProt P11712)
[4] = molecular target: Prothrombin (Bos taurus, UniProt P00735); test: thrombin inhibition, dose response, biochemical, fluorescence polarization, uHTS hits (AID 602369); type: functional
[5] = molecular target: 26S proteasome non-ATPase regulatory subunit 14 (Homo sapiens, UniProt O00487); test: inhibition of proteasome subunit RPN11 – biochemical, fluorescence polarization, uHTS hits, confirmation (AID 602368); type: functional
[6] = molecular target: 72 kDa type IV collagenase (Homo sapiens, UniProt P08253); test: Dose Response validation of uHTS RPN11 inhibitor hits using a MMP-2 Fluorescence assay.; type: functional
[7] = molecular target: T3, Heat shock factor protein 1 (Mus musculus, UniProt P38532); test: HSF1 potentiators in luciferase reporter cells, confirmation, cell-based, NIH3T3, luminescence, dose retest (AID 435004); type: functional;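 further: stress induced by proteasome inhibitor MG132 added 30 min after compound; luciferase reporter driven by HSF1 response element in NIH3T3 cells; actives raise luminescence as potentiators of the MG132 stress response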
T3 sequence (P38532 whole entry): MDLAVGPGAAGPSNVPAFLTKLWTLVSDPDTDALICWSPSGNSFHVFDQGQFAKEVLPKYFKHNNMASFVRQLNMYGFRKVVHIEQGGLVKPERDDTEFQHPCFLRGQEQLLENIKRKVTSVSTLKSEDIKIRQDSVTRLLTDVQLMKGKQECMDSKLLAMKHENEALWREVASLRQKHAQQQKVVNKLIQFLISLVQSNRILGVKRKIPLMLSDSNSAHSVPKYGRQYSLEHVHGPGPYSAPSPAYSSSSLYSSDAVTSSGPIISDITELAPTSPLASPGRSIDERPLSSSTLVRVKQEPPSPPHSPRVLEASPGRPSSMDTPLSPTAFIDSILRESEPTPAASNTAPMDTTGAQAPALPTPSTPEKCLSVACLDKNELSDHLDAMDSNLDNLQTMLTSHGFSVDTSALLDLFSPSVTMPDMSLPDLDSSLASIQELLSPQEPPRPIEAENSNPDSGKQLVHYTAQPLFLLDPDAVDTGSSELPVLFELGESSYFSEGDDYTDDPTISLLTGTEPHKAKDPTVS

[8] = molecular target: Heat shock protein HSP 90-alpha (Homo sapiens, UniProt P07900); type: functional, organism-based
[9] = molecular target: Cytochrome P450 3A4 (Homo sapiens, UniProt P08684);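 further: CYP3A4 tested as one member of a cytochrome P450 panel screen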
[10] = molecular target: Cytochrome P450 2C19 (Homo sapiens, UniProt P33261); test: Cytochrome panel assay with activity outcomes. Panel member name: p450-cyp2c19 Compounds with AC50 equal or less than 10 uM are considered active; type: functional; settings: read-out: AC50
[11] = molecular target: T4, Fatty acid synthase (Homo sapiens, UniProt P49327); test: FAS thioesterase domain inhibitors, dose response, biochemical, endpoint fluorescence intensity, uHTS hits (AID 624327); type: functional;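 further: fluorescence from hydrolysis of an O-methyl fluorescein acyl ester substrate by the enzyme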
[12] = molecular target: T4, Fatty acid synthase; test: FAS thioesterase domain inhibitors, dose response, biochemical, kinetic fluorescence intensity (AID 624326); type: functional;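 further: rate of fluorescence rise from hydrolysis of a fluorogenic O-methyl fluorescein ester substrate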
[13] = molecular target: T5, Ubiquitin-conjugating enzyme E2 N (Homo sapiens, UniProt P61088); type: functional;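 further: Dose-response confirmation in a TR-FRET assay detecting UBC13-driven polyubiquitin chain formation, inhibition measured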
T5 sequence (P61088 whole entry): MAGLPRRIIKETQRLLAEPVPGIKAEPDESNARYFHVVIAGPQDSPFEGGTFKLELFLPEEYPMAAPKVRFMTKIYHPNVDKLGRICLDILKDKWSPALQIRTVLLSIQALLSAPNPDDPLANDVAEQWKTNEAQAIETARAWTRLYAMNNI

[14] = molecular target: DNA dC->dU-editing enzyme APOBEC-3A (Homo sapiens, UniProt P31941); test: Dose Response confirmation of small molecule APOBEC3A DNA Deaminase Inhibitors via a fluorescence-based single-stranded DNA deaminase assay. [Related pubchem assays (depositor defined):AID493011, AID493024]; type: functional
[15] = molecular target: DNA dC->dU-editing enzyme APOBEC-3G (Homo sapiens, UniProt Q9HC16); type: functional;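 further: Dose-response counterscreen measuring inhibition of APOBEC3G DNA deaminase activity, run while confirming APOBEC3A inhibitors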
[16] = system: HEK293; test: inhibitors of LMP1-driven NF-kB reporter, dose response, cell-based, HEK293, luciferase, cherry-pick (AID 588343); type: functional; settings: Homo sapiens
[17] = Luminescence Cell-Based Dose Confirmation HTS to Identify Inhibitors of Platelet Dense Granule Release. [Related pubchem assays: 1663 (Primary HTS), 1678 (Summary of Project)]; type: functional
[18] = molecular target: Luciferin 4-monooxygenase (Photinus pyralis, UniProt P08659); test: firefly luciferase enzyme inhibitors, dose response, biochemical, luminescence (AID 1891)
[19] = system: INS1; test: beta cell apoptosis inhibitors, cytokine rescue, dose response, luminescence, retest (AID 449756); type: functional, cell-based; settings: Rattus norvegicus;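 further: cell death triggered by IL-1 beta plus TNF-alpha plus IFN-gamma mixture; protective hits raise ATP signal compared with cytokine alone wells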
[20] = control 3'UTR Renilla luciferase suppression, dose response, counter-screen for Shn3 inhibitor project, cell-based, Clone20-Shn3RL, cherry-picked (AID 624133); type: functional
[21] = cytotoxicity in KRAS-transformed pancreatic duct cells, primary screen, cell-based, fluorescence, HTS (AID 431); type: functional; settings: Homo sapiens;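 further: cell line used: HPDE-C7K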
[22] = HepG2 cell cytotoxicity, dose response, cytotoxicity control for Shn3 inhibitor project, CellTiter-Glo, cherry-picked (AID 624134); type: functional, cell-based
[23] = Shn3 3'UTR reporter inhibitors, dose response, cell-based, Clone20 osteoblasts, firefly luciferase, cherry-picked (AID 624132); type: functional;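 further: firefly luciferase luminescence from reporter carrying the Shn3 3'UTR in osteoblasts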
[24] = cytotoxicity in HPDE-C7 cells, cell-based, fluorescence, HTS (AID 430); type: functional; settings: Homo sapiens
[25] = molecular target: Induced myeloid leukemia cell differentiation protein Mcl-1 (Homo sapiens, UniProt Q07820); type: functional
[26] = cytotoxicity in HEK-293T cells, dose response, cytotoxicity control for TCR NF-kB inhibitor project, luminescence, T-cell screen hits (AID 489026); type: functional, cell-based;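 further: cells exposed to compound about 14 hours before the viability readout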
[27] = inhibitors of SNCA 5'UTR-driven reporter translation, confirmation, H4 neuroglioma cells, luminescence (AID 1988); type: functional, cell-based
[28] = Luminescence Cell-Based Dose Response HTS to Identify Inhibitors of 5'UTR Stem-Loop Driven Prion Protein mRNA Translation in H4 Neuroglioblastoma Cells. [Related pubchem assays: 1827 (Project Summary), 1813 (Primary HTS)]; type: functional
[29] = inhibitors of firefly luciferase expression or activity, dose response, H4 neuroglioma cells, luminescence (AID 1990); type: functional, cell-based
[30] = molecular target: Paired box protein Pax-8 (Homo sapiens, UniProt Q06710); test: inhibitors of PAX8-driven TPO luciferase reporter, dose response, RMG-I cells, cherry-pick (AID 687027); type: functional, cell-based;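 further: luciferase reporter driven by Pax8 target thyroperoxidase promoter measured by SteadyGlo luminescence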
Paired box protein Pax-8, sequence (Q06710 whole entry): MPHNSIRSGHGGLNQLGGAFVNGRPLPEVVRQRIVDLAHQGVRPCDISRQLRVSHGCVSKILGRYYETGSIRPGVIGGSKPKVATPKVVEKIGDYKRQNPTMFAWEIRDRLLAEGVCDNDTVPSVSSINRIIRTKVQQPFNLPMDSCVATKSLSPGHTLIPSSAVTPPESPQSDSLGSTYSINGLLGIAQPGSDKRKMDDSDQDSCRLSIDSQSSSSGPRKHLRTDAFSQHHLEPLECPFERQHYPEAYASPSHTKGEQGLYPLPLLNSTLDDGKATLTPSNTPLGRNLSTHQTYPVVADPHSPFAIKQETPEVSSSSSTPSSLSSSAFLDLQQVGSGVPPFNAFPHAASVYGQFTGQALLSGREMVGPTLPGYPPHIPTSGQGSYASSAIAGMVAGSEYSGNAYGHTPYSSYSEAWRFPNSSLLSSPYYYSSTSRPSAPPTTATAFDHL

Cytochrome P450 2C9, sequence (P11712 whole entry): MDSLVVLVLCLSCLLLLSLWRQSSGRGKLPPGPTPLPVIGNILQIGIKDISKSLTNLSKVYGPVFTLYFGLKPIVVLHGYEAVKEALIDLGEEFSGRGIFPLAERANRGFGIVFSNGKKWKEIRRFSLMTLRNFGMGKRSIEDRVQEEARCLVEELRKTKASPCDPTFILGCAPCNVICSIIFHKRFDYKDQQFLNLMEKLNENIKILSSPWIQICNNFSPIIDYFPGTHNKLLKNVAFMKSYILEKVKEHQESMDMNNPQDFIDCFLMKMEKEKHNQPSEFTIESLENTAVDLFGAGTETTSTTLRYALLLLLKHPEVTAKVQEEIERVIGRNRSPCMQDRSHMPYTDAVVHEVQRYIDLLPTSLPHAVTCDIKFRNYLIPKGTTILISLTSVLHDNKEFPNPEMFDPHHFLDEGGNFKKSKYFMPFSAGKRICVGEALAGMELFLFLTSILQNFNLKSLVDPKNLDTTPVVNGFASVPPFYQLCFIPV
72 kDa type IV collagenase, sequence (P08253 whole entry): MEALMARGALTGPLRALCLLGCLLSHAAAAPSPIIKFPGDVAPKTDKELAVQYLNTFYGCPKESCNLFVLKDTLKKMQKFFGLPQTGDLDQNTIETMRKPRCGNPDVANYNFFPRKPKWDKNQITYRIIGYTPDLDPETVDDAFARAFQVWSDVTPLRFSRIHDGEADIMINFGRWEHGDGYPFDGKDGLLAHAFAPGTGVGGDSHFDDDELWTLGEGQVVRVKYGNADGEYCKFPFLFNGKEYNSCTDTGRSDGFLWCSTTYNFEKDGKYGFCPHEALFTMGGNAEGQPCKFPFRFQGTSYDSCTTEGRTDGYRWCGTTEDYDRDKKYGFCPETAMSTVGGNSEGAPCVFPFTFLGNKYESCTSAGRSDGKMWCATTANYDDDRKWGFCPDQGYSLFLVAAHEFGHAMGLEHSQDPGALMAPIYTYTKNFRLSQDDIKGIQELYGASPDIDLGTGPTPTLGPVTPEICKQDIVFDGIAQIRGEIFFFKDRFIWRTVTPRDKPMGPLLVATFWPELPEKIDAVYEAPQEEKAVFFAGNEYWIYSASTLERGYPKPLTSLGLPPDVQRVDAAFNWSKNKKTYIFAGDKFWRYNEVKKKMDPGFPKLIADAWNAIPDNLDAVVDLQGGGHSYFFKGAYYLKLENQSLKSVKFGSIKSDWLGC
26S proteasome non-ATPase regulatory subunit 14, sequence (O00487 whole entry): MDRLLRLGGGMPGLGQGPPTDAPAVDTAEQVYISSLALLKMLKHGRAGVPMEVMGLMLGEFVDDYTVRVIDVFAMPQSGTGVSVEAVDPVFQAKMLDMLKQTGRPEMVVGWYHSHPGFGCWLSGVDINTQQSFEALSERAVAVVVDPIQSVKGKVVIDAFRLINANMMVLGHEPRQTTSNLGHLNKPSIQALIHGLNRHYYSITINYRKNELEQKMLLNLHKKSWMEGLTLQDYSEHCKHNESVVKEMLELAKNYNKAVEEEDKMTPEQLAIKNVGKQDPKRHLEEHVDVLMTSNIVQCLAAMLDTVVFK
T4 sequence (P49327 whole entry, the tested form may be a part): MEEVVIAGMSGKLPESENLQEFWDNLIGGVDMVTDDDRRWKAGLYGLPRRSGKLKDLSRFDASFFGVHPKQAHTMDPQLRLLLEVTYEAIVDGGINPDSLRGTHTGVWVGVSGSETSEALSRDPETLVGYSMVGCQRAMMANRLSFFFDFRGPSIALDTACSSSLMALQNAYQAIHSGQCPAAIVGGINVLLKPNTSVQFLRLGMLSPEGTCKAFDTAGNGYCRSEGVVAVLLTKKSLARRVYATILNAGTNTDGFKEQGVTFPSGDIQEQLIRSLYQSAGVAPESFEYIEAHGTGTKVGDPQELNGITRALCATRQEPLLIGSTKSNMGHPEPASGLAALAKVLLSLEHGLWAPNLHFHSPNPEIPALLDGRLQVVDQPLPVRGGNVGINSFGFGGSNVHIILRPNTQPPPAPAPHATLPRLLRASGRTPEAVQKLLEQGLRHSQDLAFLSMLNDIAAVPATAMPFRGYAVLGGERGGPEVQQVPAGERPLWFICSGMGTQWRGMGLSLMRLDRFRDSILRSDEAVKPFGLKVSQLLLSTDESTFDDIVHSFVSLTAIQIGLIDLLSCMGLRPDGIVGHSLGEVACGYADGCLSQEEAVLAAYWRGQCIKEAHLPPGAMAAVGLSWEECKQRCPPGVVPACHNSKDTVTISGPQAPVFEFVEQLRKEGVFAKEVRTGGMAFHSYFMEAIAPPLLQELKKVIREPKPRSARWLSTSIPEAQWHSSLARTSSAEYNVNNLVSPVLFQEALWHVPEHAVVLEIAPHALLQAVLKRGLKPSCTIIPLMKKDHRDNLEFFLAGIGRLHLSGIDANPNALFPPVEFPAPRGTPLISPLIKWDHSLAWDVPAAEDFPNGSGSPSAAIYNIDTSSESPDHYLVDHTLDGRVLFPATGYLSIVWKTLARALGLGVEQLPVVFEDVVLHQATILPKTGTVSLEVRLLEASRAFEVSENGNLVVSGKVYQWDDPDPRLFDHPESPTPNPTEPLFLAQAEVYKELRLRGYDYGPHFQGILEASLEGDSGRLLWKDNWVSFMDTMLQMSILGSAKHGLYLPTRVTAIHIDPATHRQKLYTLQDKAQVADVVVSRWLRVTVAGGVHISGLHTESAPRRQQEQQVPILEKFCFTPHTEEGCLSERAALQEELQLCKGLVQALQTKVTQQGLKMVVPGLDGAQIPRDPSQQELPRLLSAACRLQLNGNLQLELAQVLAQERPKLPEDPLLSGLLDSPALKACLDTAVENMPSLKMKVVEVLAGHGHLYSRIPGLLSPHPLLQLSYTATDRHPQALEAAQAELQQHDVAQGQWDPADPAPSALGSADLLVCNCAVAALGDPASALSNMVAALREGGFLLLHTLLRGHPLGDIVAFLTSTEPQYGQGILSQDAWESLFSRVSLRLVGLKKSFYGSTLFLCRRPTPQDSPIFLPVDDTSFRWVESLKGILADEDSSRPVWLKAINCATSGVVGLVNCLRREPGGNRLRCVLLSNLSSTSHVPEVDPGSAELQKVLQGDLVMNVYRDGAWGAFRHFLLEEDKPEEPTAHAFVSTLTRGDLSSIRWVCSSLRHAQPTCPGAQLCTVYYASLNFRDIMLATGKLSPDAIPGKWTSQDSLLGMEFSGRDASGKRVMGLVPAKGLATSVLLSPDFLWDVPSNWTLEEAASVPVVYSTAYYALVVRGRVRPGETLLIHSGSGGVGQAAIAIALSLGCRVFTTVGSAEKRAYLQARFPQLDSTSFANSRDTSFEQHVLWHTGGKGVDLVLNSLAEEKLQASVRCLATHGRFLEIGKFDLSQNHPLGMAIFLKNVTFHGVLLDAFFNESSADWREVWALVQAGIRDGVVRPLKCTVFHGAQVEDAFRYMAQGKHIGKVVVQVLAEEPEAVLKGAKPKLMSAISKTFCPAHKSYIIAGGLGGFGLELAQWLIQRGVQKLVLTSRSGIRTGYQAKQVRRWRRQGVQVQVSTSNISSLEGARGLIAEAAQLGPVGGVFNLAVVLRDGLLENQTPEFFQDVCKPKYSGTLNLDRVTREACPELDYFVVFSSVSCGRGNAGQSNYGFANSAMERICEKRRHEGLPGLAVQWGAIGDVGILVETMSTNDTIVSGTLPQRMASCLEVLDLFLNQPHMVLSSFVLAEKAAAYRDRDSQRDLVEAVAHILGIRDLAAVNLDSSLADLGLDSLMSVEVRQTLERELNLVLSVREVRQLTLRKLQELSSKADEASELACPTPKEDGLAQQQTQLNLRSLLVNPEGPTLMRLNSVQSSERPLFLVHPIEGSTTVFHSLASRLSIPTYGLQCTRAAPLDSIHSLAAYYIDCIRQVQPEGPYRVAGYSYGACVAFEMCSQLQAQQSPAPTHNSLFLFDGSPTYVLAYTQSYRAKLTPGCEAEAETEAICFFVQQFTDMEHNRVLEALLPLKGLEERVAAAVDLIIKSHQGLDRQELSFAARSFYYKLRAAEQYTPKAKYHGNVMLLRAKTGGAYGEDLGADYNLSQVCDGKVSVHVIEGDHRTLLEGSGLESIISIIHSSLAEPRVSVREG
Luciferin 4-monooxygenase, sequence (P08659 whole entry): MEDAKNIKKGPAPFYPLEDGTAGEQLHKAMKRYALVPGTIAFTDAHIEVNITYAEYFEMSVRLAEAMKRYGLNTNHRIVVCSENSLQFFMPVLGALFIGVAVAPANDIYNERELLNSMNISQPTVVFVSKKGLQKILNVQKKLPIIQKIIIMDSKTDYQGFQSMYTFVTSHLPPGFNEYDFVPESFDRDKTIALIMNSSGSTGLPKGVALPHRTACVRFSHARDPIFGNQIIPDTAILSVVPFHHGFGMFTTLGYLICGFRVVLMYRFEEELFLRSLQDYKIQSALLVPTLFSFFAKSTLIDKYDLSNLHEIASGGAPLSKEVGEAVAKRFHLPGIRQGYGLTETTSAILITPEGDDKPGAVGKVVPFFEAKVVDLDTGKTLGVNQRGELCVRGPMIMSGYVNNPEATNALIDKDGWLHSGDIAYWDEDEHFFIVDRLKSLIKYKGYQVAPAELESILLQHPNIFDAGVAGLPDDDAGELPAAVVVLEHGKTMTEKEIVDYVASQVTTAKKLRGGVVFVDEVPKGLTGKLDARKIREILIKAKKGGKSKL

O=C(N/N=C/C(Br)=C/c1ccccc1)c1ccc([N+](=O)[O-])cc1
IC50 [1]: 10.4 µM (active)

Cc1ccc(-n2nnnc2Sc2nc([N+](=O)[O-])nn2C)c(C)c1
AC50 [2]: 39.6 µM (active)

Cn1nc(C(F)(F)F)c(/C=N/OC(=O)c2ccccc2)c1Cl
AC50 [3]: inactive

O=C(N/N=C/C(Cl)=C/c1ccccc1)c1ccc2c(c1)OCO2
IC50 [1]: 52.9 µM (inactive)

COc1cccc2cc(C(=O)Nc3ccc(F)cc3)/c(=N/c3ccc(C(=O)O)cc3)oc12
IC50 [4]: 21.7 µM (active) | IC50 [5]: 48.2 µM (active) | IC50 [6]: > 100 µM (inactive)

O=C(C#Cc1ccccc1)c1cccc([N+](=O)[O-])c1
EC50 [7]: > 260 µM (inconclusive) | AC50 [8]: 750 nM (active) | AC50 [2]: 3.62 µM (active)

COc1ccc(Cc2c(-c3ccc(C)cc3)nc3ccc(Cl)cn23)c(C)c1
IC50 [4]: 22.2 µM (active) | IC50 [5]: 27.1 µM (active) | IC50 [6]: 92.4 µM (active)

CCN(CC)C(=O)C(=O)N/N=C/c1cccc(Br)c1
AC50 [3]: inconclusive

COc1ccc(C(=O)NCc2cn3ccccc3n2)cc1
AC50 [9]: 28.2 µM (inconclusive) | AC50 [3]: inconclusive | AC50 [10]: 20 µM (inconclusive)

COc1ccccc1C1=NOC(COC(=O)c2ccc3ccccc3n2)C1 (centres undefined)
AC50 [3]: inconclusive

O=C(Nc1ccc2c(c1)CCC2)c1cc(S(=O)(=O)N2CCN(c3ccccc3)CC2)ccc1Cl
IC50 [4]: 31.6 µM (active) | IC50 [5]: 50.9 µM (active) | IC50 [6]: > 100 µM (inactive)

CC(C)(C)c1ccc(C(=O)OCCNC(=O)c2c(Cl)nc3ccccn23)cc1
IC50 [11]: 5.51 µM (active) | IC50 [12]: 4.36 µM (active)

Cc1cc(N2CCN(c3nc(-c4ccc([N+](=O)[O-])cc4)cs3)CC2)c2ccccc2n1
IC50 [1]: 4.77 µM (active)

COC(=O)C1=C(C)N(Cc2ccccc2)C(NCC(C)C)=N[C@H]1c1cccc(C(F)(F)F)c1
IC50 [13]: > 20 µM (inactive) | IC50 [14]: 2.88 µM (active) | IC50 [15]: 4.22 µM (active) | AC50 [2]: 15 µM (active)

C/C(=N\Nc1nc(N2CCOCC2)nc(N2CCOCC2)n1)c1ccc([N+](=O)[O-])cc1
IC50 [11]: 14.5 µM (active) | IC50 [12]: 17.9 µM (active)

COC(=O)[C@@]1(Cc2ccccc2)[C@H]2C(=O)N(Cc3ccccc3)C(=O)[C@H]2[C@H]2CN=C(SCc3ccc(Cl)cc3)N21
AC50 [16]: 6.5 µM (active)

O=C1C=Cc2cccc3ccc(O)c1c23
AC50 [16]: 18.1 µM (active)

CC(C)COc1ccc(C(=O)N/C(=C\c2cccc([N+](=O)[O-])c2)C(=O)O)cc1
IC50 [11]: 8.63 µM (active) | IC50 [12]: 9.1 µM (active)

COc1ccc(C(=O)/N=c2\nc3ccccn3s2)cc1
AC50 [16]: 0.768 µM (active) | EC50 [17]: 5.24 µM (active) | EC50 [18]: 1.07 µM (active)

CCn1cc(C(=O)O)c(=O)c2cc(F)c(N3CCN(C(=S)NC(=O)c4ccccc4F)CC3)cc21
IC50 [1]: 6.64 µM (active)

O=C(c1ccccc1)C(CCC(CN1CCOCC1)C(=O)c1ccccc1)CN1CCOCC1 (centres undefined)
AC50 [16]: 6.35 µM (active) | AC50 [19]: > 120 µM (inactive) | AC50 [20]: 11.9 µM (active) | EC50 [21]: 6.43 µM (active) | AC50 [22]: 12.6 µM (active) | AC50 [23]: 12.8 µM (active) | EC50 [24]: 11.1 µM (active)

COc1ccccc1CC(=N)NOC(=O)c1ccc(C)c([N+](=O)[O-])c1
AC50 [3]: inconclusive

NC1=NC(=O)/C(=C/c2cn(CCC(=O)O)nc2-c2ccc(Cl)cc2)S1
IC50 [4]: 40.4 µM (active) | IC50 [25]: 4.92 µM (active) | IC50 [5]: 44.7 µM (active) | IC50 [6]: > 100 µM (inactive)

COC(=O)c1[nH]c2ccc(Br)cc2c1NC(=O)CN1CCN(C2CCCCC2)CC1
IC50 [26]: 22.4 µM (inactive) | EC50 [21]: > 20 µM (not active) | EC50 [27]: 7.79 µM (active) | EC50 [28]: 12.9 µM (active) | EC50 [24]: > 20 µM (not active) | EC50 [29]: 12.2 µM (active)

COc1cc(C2C(C#N)=C(N)Oc3cc4c(cc32)OCO4)cc(OC)c1OC (centres undefined)
AC50 [30]: 553 nM (active) | IC50 [26]: > 80 µM (inactive) | AC50 [2]: 0.365 µM (active)

Cc1nc2c(OCc3ccc(Cl)cc3Cl)cccn2c1N(C)CC1CC1
IC50 [11]: 12.7 µM (active) | AC50 [20]: 19.9 µM (active) | AC50 [22]: 35.3 µM (active) | IC50 [12]: 12.9 µM (active) | AC50 [23]: 10 µM (active)
